# Values joined by “and” are separate entries in the source; they are usually repeats but may differ in a detail not shown here. Equal values may be shown once.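 Exposure lasted 48 hours, with cells grown in 96-well plates and compounds tested at five concentrations. GI50 = concentration required for 50% inhibition of growth. TGI: concentration producing complete growth inhibition.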 Where a SMILES comes first, the peptide text is derived from it. [ ]: non-standard residue; d: D form. The star is where a group is joined. Phe(4-NO2) = N[CH](Cc1ccc([N+](=O)[O-])cc1)C(=O)O; Boc = CC(C)(C)OC(=O)*; OBn = c1ccc(CO*)cc1
# Assays:
# Test in all cases: DTP human tumour cell line panel, 48 h
# [1] = system: NCI-H522 lung
# [2] = system: M19-MEL melanoma
# [3] = system: OVCAR-3 ovarian
# [4] = system: COLO 205 colon
# [5] = system: EKVX NSCLC
# [6] = system: DMS 273 small cell lung
# [7] = system: U251 CNS
# [8] = system: RPMI-8226 leukemia
# [9] = system: NCI-H226 lung
# [10] = system: SR leukemia
# [11] = system: ACHN renal
# [12] = system: KM20L2 colon
# [13] = system: SF-295 CNS
# [14] = system: SK-MEL-5 melanoma
# [15] = system: LOX IMVI melanoma
# [16] = system: DLD-1 colon
# [17] = system: UACC-62 melanoma
# [18] = system: M14 melanoma
# [19] = system: 786-0 renal
# [20] = system: HCT-15 colon
# [21] = system: OVCAR-8 ovarian
# [22] = system: A498 renal
# [23] = system: SK-MEL-28 melanoma
# [24] = system: SK-OV-3 ovarian
# [25] = system: DMS 114 small cell lung
# [26] = system: TK-10 renal
# [27] = system: HCC-2998 colon
# [28] = system: HCT-116 colon
# [29] = system: HL-60(TB) leukemia
# [30] = system: UO-31 renal
# [31] = system: SF-268 CNS
# [32] = system: NCI-H460 lung
# [33] = system: UACC-257 melanoma
# [34] = system: HOP-62 NSCLC
# [35] = system: MOLT-4 leukemia
# [36] = system: OVCAR-4 ovarian
# [37] = system: HT29 colon
# [38] = system: HOP-92 NSCLC
# [39] = system: A549 NSCLC
# [40] = system: OVCAR-5 ovarian
# [41] = system: CCRF-CEM leukemia
# [42] = system: NCI-H23 lung
# [43] = system: CAKI-1 renal
# [44] = system: MALME-3M melanoma
# [45] = system: SNB-75 CNS
# [46] = system: SF-539 CNS
# [47] = system: SNB-19 CNS
# [48] = system: SK-MEL-2 melanoma
# [49] = system: KM12 colon
# [50] = system: K-562 leukemia
# [51] = system: SW-620 colon
# [52] = system: RXF 393 renal
# [53] = system: SNB-78 CNS
# [54] = system: IGROV1 ovarian
# [55] = system: HOP-18 NSCLC
# [56] = system: SN12C renal
# [57] = system: LXFL 529 NSCLC
# [58] = system: MCF7 breast
# [59] = system: HS 578T breast
# [60] = system: NCI/ADR-RES ovarian
# [61] = system: MDA-N
# [62] = system: BT-549 breast
# [63] = system: T-47D breast
# [64] = system: PC-3 prostate
# [65] = system: MDA-MB-435
# [66] = system: DU-145 prostate
# [67] = system: MDA-MB-231 breast
compound,measurement,setting,value
Cc1nc2c(nc1C)C(=O)c1cc(O)ccc1C2=O,TGI,[1],> 100 µM
same,TGI,[2],22.3 µM
same,TGI,[3],> 100 µM
same,TGI,[4],45.2 µM
same,TGI,[5],> 100 µM
same,TGI,[6],> 100 µM
same,TGI,[7],> 100 µM
same,TGI,[8],> 79.7 µM
same,TGI,[9],> 100 µM
same,TGI,[10],> 100 µM
same,TGI,[11],> 100 µM
same,TGI,[12],> 100 µM
same,TGI,[13],> 100 µM
same,TGI,[14],29.6 µM
same,TGI,[15],> 100 µM
same,TGI,[16],> 86.8 µM
same,TGI,[17],53.5 µM
same,TGI,[18],> 100 µM
same,TGI,[19],> 100 µM
same,TGI,[20],> 67.3 µM
same,TGI,[21],> 100 µM
same,TGI,[22],> 100 µM
same,TGI,[23],> 100 µM
same,TGI,[24],> 100 µM
same,TGI,[25],> 90.6 µM
same,TGI,[26],> 100 µM
same,TGI,[27],> 100 µM
same,TGI,[28],> 100 µM
same,TGI,[29],> 67.3 µM
same,TGI,[30],> 100 µM
same,TGI,[31],> 100 µM
same,TGI,[32],> 100 µM
same,TGI,[33],> 78 µM
same,TGI,[34],> 100 µM
same,TGI,[35],> 100 µM
same,TGI,[36],> 100 µM
same,TGI,[37],> 87.2 µM
same,TGI,[38],> 100 µM
same,TGI,[39],> 100 µM
same,TGI,[40],> 100 µM
same,TGI,[41],> 100 µM
same,TGI,[42],> 100 µM
same,TGI,[43],> 100 µM
same,TGI,[44],43.7 µM
same,TGI,[45],> 100 µM
same,TGI,[46],> 100 µM
same,TGI,[47],> 100 µM
same,TGI,[48],> 100 µM
same,TGI,[49],> 100 µM
same,TGI,[50],> 100 µM
same,TGI,[51],> 100 µM
same,TGI,[52],> 100 µM
same,TGI,[53],> 100 µM
same,TGI,[54],> 100 µM
same,TGI,[55],> 100 µM
same,TGI,[56],> 100 µM
same,TGI,[57],> 100 µM
COC(=O)CCC(NC(=O)OC(C)(C)C)C(=O)NC(Cc1ccc([N+](=O)[O-])cc1)C(=O)NCC(=O)OCc1ccccc1 (centres undefined) (Boc-Glu(OMe)-[Phe(4-NO2)]-Gly-OBn; configuration not given here),TGI,[1],> 100 µM
same,TGI,[3],> 100 µM
same,TGI,[4],> 100 µM
same,TGI,[5],> 100 µM
same,TGI,[7],> 100 µM
same,TGI,[8],> 100 µM
same,TGI,[9],> 100 µM
same,TGI,[10],> 100 µM
same,TGI,[11],> 100 µM
same,TGI,[13],> 74.1 µM
same,TGI,[58],> 100 µM
same,TGI,[14],> 100 µM
same,TGI,[15],> 86.3 µM
same,TGI,[59],> 64.4 µM
same,TGI,[17],> 31.6 µM
same,TGI,[18],> 100 µM
same,TGI,[19],> 100 µM
same,TGI,[20],> 100 µM
same,TGI,[21],> 100 µM
same,TGI,[22],> 100 µM
same,TGI,[23],> 100 µM
same,TGI,[24],> 100 µM
same,TGI,[26],> 100 µM
same,TGI,[60],> 100 µM
same,TGI,[27],> 100 µM
same,TGI,[28],> 100 µM
same,TGI,[29],> 100 µM
same,TGI,[30],> 100 µM
same,TGI,[31],> 100 µM
same,TGI,[32],> 100 µM
same,TGI,[33],> 100 µM
same,TGI,[61],> 100 µM
same,TGI,[34],> 77.6 µM
same,TGI,[35],> 100 µM
same,TGI,[36],> 100 µM
same,TGI,[37],> 100 µM
same,TGI,[38],> 95.1 µM
same,TGI,[39],> 100 µM
same,TGI,[40],> 100 µM
same,TGI,[41],> 100 µM
same,TGI,[42],> 100 µM
same,TGI,[43],> 100 µM
same,TGI,[44],> 100 µM
same,TGI,[45],48.4 µM
same,TGI,[62],66.9 µM
same,TGI,[46],63.6 µM
same,TGI,[47],> 100 µM
same,TGI,[48],> 100 µM
same,TGI,[49],> 100 µM
same,TGI,[50],> 100 µM
same,TGI,[51],> 100 µM
same,TGI,[52],> 72.8 µM
same,TGI,[63],> 100 µM
same,TGI,[64],> 100 µM
same,TGI,[54],> 100 µM
same,TGI,[65],> 100 µM
same,TGI,[56],> 100 µM
same,TGI,[66],> 100 µM
same,TGI,[67],> 91.6 µM
CN1CCN(CN2C(=O)C3C4C=CC(C3C2=O)C2C3C(=O)N(CN5CCN(C)CC5)C(=O)C3C42)CC1 (centres undefined),TGI,[1],39.6 µM and 25.4 µM
same,TGI,[3],48.2 µM and 57.6 µM and 75.5 µM
same,TGI,[4],33.2 µM and 34.5 µM and 35.3 µM
same,GI50,[5],> 100 µM
same,TGI,[5],> 100 µM
same,TGI,[6],39.4 µM and 30.9 µM and 10.6 µM
same,TGI,[7],38.3 µM and 37.2 µM and 33 µM
same,TGI,[8],59.2 µM and 53.2 µM and 71.5 µM
same,GI50,[9],33.5 µM and > 57.7 µM and 76.8 µM
same,TGI,[9],> 100 µM
same,TGI,[10],41.6 µM and 36.2 µM
same,TGI,[11],73.6 µM and > 61.3 µM and 48.5 µM
same,TGI,[12],56.8 µM and 40.9 µM and 63.4 µM
same,GI50,[13],32.2 µM and 86.2 µM and 49.2 µM
same,TGI,[13],97.4 µM and > 100 µM
same,TGI,[58],> 100 µM
same,TGI,[14],31 µM and > 58.5 µM and 68.7 µM
same,TGI,[15],35.5 µM and 37.4 µM and 33.8 µM
same,TGI,[16],49.7 µM and 41 µM and 52.4 µM
same,TGI,[59],> 100 µM
same,TGI,[17],43.3 µM and 37.1 µM and 58.7 µM
same,TGI,[18],30.8 µM and 34.2 µM and 40.8 µM
same,TGI,[19],34.3 µM and 40.3 µM and 36 µM
same,TGI,[20],34.8 µM and 42.1 µM and 30.3 µM
same,TGI,[21],35.7 µM and > 65.3 µM and 59.9 µM
same,TGI,[22],> 100 µM and 97.9 µM
same,TGI,[23],49.3 µM and > 61.8 µM and 35.3 µM
same,GI50,[24],37.4 µM and 34.1 µM and 80.1 µM
same,TGI,[24],> 100 µM
same,TGI,[25],36.8 µM and 37.7 µM and 35.5 µM
same,TGI,[26],> 100 µM
same,TGI,[60],64.5 µM
same,TGI,[27],89.2 µM and 51.5 µM and 79 µM
same,TGI,[28],33.4 µM and 36.4 µM and 27.3 µM
same,TGI,[30],76.8 µM and > 67.8 µM and > 100 µM
same,TGI,[31],50.6 µM and > 62.6 µM and 33.9 µM
same,TGI,[32],32.3 µM and 37.9 µM and 27.3 µM
same,GI50,[33],35.7 µM and 25 µM and 62.2 µM
same,TGI,[33],84.4 µM and 54.3 µM and > 100 µM
same,TGI,[61],32.5 µM
same,TGI,[34],> 100 µM
same,TGI,[35],60.6 µM and 51.3 µM and 55.9 µM
same,TGI,[36],38.4 µM and 45.1 µM and 53.5 µM
same,TGI,[37],> 100 µM
same,GI50,[38],35.7 µM and > 96.5 µM and > 100 µM
same,TGI,[38],94.8 µM and > 100 µM
same,TGI,[39],90.5 µM and 57.5 µM and 36.2 µM
same,TGI,[40],> 100 µM
same,TGI,[41],65.3 µM and 42 µM and 48.3 µM
same,TGI,[42],43.9 µM and 39.6 µM and 75.2 µM
same,GI50,[43],44.8 µM and 33.6 µM and 70.6 µM
same,TGI,[43],> 100 µM
same,TGI,[44],34.2 µM
same,TGI,[45],79.8 µM and 72.9 µM and 92.1 µM
same,TGI,[62],69.6 µM
same,TGI,[46],44.4 µM and 45.4 µM and 49.1 µM
same,GI50,[47],31.7 µM and 53.2 µM and 76.9 µM
same,TGI,[47],> 100 µM
same,TGI,[48],40 µM and 35.6 µM and 30 µM
same,TGI,[49],41.7 µM and 51.9 µM and > 100 µM
same,TGI,[50],81.4 µM and 55.6 µM and 58.2 µM
same,TGI,[51],43.2 µM and > 60.8 µM and 35.1 µM
same,TGI,[52],41.4 µM and 34.7 µM and 36.2 µM
same,TGI,[63],> 100 µM
same,TGI,[64],97.9 µM
same,TGI,[54],> 100 µM
same,TGI,[65],31.3 µM
same,GI50,[55],34.4 µM and 13 µM and 48.6 µM
same,TGI,[55],71 µM and 34.4 µM and > 100 µM
same,TGI,[56],43.7 µM and 41.9 µM and 52.8 µM
same,TGI,[66],77.2 µM
same,TGI,[67],56.8 µM
same,TGI,[57],35.9 µM and 32.7 µM and 57.3 µM

# Reference: PubChem BioAssay (NCI)
